Source: patent US20250228832A1, “METHODS FOR TREATING DISORDERS AMELIORATED BY MUSCARINIC RECEPTOR ACTIVATION” (KARUNA THERAPEUTICS, INC., priority 2022, published 2025)
Read-outs that look alike come from different tables or passages of the source.

Key:
[1] = 25-75 mg TID, 75-225 mg TDD; cited from earlier work
[2] = target: T1, human M4 receptor (Homo sapiens, UniProt P08173); assay: SPA GTP (GTPgS) binding curve shift assay, M4; type: biochemical
T1 construct: expressed in transfected cells
T1 sequence (P08173 1-479): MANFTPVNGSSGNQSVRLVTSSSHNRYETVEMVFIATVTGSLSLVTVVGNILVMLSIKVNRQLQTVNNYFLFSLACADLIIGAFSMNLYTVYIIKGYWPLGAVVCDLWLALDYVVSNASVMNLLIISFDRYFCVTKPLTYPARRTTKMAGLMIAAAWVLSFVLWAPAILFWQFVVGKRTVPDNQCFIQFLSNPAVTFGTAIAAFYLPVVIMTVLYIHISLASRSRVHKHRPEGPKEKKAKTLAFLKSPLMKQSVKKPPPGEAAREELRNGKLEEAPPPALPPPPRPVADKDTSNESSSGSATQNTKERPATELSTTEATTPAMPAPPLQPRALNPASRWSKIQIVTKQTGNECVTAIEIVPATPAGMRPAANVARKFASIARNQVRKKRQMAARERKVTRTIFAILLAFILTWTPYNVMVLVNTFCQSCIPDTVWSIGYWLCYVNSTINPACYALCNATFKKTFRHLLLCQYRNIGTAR
Experimental: Membranes were prepared for GTPgS binding assays from CHO-K1 cells stably expressing human M2 or human M4 receptors. Cells were grown in 5-layer cell culture flasks. Cells were washed with 50 mL of PBS and then dissociated with 0.05% trypsin. Dissociated cells were then collected by centrifugation at 650×g for 8 min at 4° C. Pellets were rewashed in PBS by centrifugation and resuspended in 30 mL of 20 mM HEPES, 10 mM EDTA, pH 7.4. After sitting on ice for 30 min, membranes were collected by centrifugation at 50000×g for 15 min at 4° C., resuspended in 30 mL of 20 mM HEPES, 0.1 mM EDTA, pH 7.4, and collected again by centrifugation. Pellets were then washed twice by centrifugation in 30 mL of 20 mM HEPES, pH 7.4, and stored at −80° C. until the day of the assay. On the day of the assay, pellets were thawed on ice and resuspended in 1 mL of 20 mM HEPES, pH 7.4, 10 mM MgCl2, and 100 mM NaCl using Dounce homogenization.
According to Promega guidelines, membrane protein concentration was determined by BCA protein assay (Promega, Madison, WI).
On the day of the assay, serial dilutions of test PAM compounds were brought up in assay buffer (20 mM HEPES, 10 mM MgCl2; see Table 4 for NaCl concentrations) at four times the final assay concentration. […] of membrane homogenates (containing […] of membrane protein) were prepared in assay buffer supplemented with GDP at 4× final assay concentration (see Table 4 for GDP concentrations) and dispensed into 96 well polypropylene, U-bottom Greiner plates. Membrane plates were incubated for 10 min at room temperature with gentle shaking. Then, 25 μL of test compounds were added to assay plates. Plates were then incubated, with shaking, for an additional 10-15 min. Then, 25 μL of diluted agonists serially diluted in assay buffer at 4× final assay concentration was added to assay plates. Plates were then incubated, with shaking, for an additional 10-15 min. Next, […] of 0.4 nM ^35S-GTP (Perkin Elmer, Waltham, MA) in assay buffer was added to assay mixtures. The binding reaction was left on the shaker for 1 h at room temperature. Membranes in assay reactions were then transferred to GF/C filter plates (UniFilter, Perkin Elmer) and washed three times using FilterMate Harvester (Perkin Elmer) with cold assay buffer containing no GDP. Filter plates were then dried at 40° C. overnight, and […] of Beta Plate Scintillation liquid was added. Plates were top and bottom sealed before being read on the TopCount scintillation counter (Perkin Elmer, Waltham, MA).
Raw data for all assays was transmitted directly from plate readers into the Beacon database for processing. All assay plates contained positive and negative control wells for data normalization and scaling. […] All control wells contained DMSO at a final assay concentration that matched the test compound wells.
For GTPgS assays, the negative control wells were defined as 0% response. The highest response in a plate was scaled to 1, representing 100% response. Data from test compound wells was scaled to these controls and are reported as % control values. This was done to allow for subsequent GraphPad cooperativity analysis, setting the maximal response at no more than 1.

[3] = 26-week study of Alzheimer's disease; cited from earlier work
[4] = Emraclidine concentration 41.2 nM, read-out: Emax
[5] = Emraclidine concentration 123 nM, read-out: Emax
[6] = Emraclidine concentration 370 nM
[7] = Emraclidine concentration 1110 nM, read-out: Emax
[8] = Emraclidine concentration 3330 nM, read-out: Emax
[9] = MK-4710 concentration 41.2 nM, read-out: Emax
[10] = MK-4710 concentration 123 nM, read-out: Emax
[11] = MK-4710 concentration 1110 nM, read-out: Emax
[12] = MK-4710 concentration 3330 nM, read-out: Emax

SMILES | Emax ([2]; Emraclidine concentration 0 nM) | Emax [2, 4] | Emax [2, 5] | Emax at […] [2, 6] | Emax [2, 7] | Emax [2, 8] | Emax at […] ([2]; Emraclidine concentration […]) | τ (agonist pharmacology) ([2]; M4 PAM Emraclidine) | Emax ([2]; MK-4710 concentration 0 nM) | Emax [2, 9] | Emax [2, 10] | Emax at […] ([2]; MK-4710 concentration 370 nM) | Emax [2, 11] | Emax [2, 12] | Emax at […] ([2]; MK-4710 concentration […]) | EC50 ([2]; Emraclidine concentration 0 nM) | α (cooperativity, affinity shift) ([2]; M4 PAM Emraclidine) | β (cooperativity, efficacy shift) ([2]; M4 PAM Emraclidine) | α (cooperativity, affinity shift) ([2]; M4 PAM MK-4710) | β (cooperativity, efficacy shift) ([2]; M4 PAM MK-4710) | also measured
CCCCCCOc1nsnc1C1=CCCN(C)C1 [xanomeline, reference compound] | 27.2% | 31.9% | 38.1% | 60% | 78.7% | 89.4% | 28.7% | 1.4 | 19.7% | 29.7% | 38.5% | 55% | 70.6% | 80.5% | 25.1% | – | – | – | – | – | positive (psychosis), negative, and cognitive symptoms of schizophrenia [1]: improved; dropout rate [3]: 56%
CCCCCCCOc1nsnc1C1=CCCCN1C [KTX-593, 3-(heptyloxy)-4-(1-methyl-1,4,5,6-tetrahydropyridin-2-yl)-1,2,5-thiadiazole] | 14.3% | 24.5% | 43.9% | 60.1% | 76.8% | 84% | 24.2% | 1.5 | 14.0% | 35.9% | 41.8% | 59.7% | 80% | 88.1% | 26% | 12.7 nM | 2.4 | 56.3 | 1.0 | 1051018.0 | τ (agonist pharmacology) ([2]; M4 PAM MK-4710): 381.2; EC50 ([2]; MK-4710 concentration 0 nM): 44.7 nM
CCCCCOc1nsnc1C1=CCCCN1C [KTX-517, 3-(1-methyl-1,4,5,6-tetrahydropyridin-2-yl)-4-(pentyloxy)-1,2,5-thiadiazole] | 2.6% | 17.8% | 29.6% | 46.5% | 62.4% | 66.8% | 10.6% | 0.6 | 12.6% | 27.3% | 34.3% | 53.4% | 75.1% | 87.1% | 20.4% | 1.6 nM | 3.0 | 32.3 | 1.0 | 1395.0 | τ (agonist pharmacology) ([2]; M4 PAM MK-4710): 0.8; EC50 ([2]; MK-4710 concentration 0 nM): 548 nM; EC50 ([2]; MK-4710 concentration 41.2 nM): 2.3 nM; EC50 ([2]; MK-4710 concentration 123 nM): 1.4 nM; EC50 ([2]; MK-4710 concentration 370 nM): 2.1 nM; EC50 ([2]; MK-4710 concentration 1110 nM): 2.3 nM; EC50 ([2]; MK-4710 concentration 3330 nM): 1.5 nM; EC50 ([2]; MK-4710 concentration […]): 8.7 nM
CC1OC2(CS1)CN1CCC2CC1 (centres unmarked) [cevimeline, Cevimeline, reference compound] | 4.0% | 13.2% | 28% | 49.2% | 73.3% | 86.3% | 10.6% | 0.4 | 6.4% | 20.2% | 26.6% | 42.1% | 68.1% | 83.6% | 14.4% | 1300 nM | 1.0 | 57.2 | 1.0 | 136.5 | τ (agonist pharmacology) ([2]; M4 PAM MK-4710): 0.1; EC50 ([2]; MK-4710 concentration 0 nM): 3010 nM
